# Results from ChEMBL document CHEMBL6092137, “Synergistic immune augmentation enabled by covalently conjugating TLR4 and NOD2 agonists” (Eur J Med Chem, 2024).
# Activity calls are given as the source filed them. No cut-off for these calls is given here.
# How the values were obtained:
# THP-1 = assay: Cytotoxicity against human THP-1 cells assessed as reduction in cell viability by MTT assay; format: toxicity, cell-based
# Mus musculus [1] = assay: Induction of innate immunity in BALB/c mouse assessed as fold increase in IL-6 level in serum at 16.12 ug, ip in liposome formulation measured after 2 hrs by ELISA relative to RC529-NH2; format: functional; conditions: dose 16.12 µg
# Mus musculus [2] = assay: Induction of innate immunity in BALB/c mouse assessed as fold increase in IL-6 level in serum at 16.12 ug, ip measured after 2 hrs in presence of muramyl dipeptide by ELISA relative to RC529; format: functional; conditions: dose 16.12 µg
# Mus musculus [3] = assay: Induction of innate immunity in BALB/c mouse assessed as fold increase in IL-6 level in serum at 5.36 ug, ip measured after 2 hrs in presence of muramyl dipeptide by ELISA relative to muramyl dipeptide; format: functional; conditions: dose 5.36 µg
# BMDC [4] = assay: Immunostimulatory activity in C57BL/6 mouse BMDC cells assessed as increase in IL-6 level at 9.3 uM incubated for 20 hrs in presence of TAK242 inhibitor by ELISA; format: functional, cell-based
# [5] = Induction of mouse RAW264.7 cell maturation assessed as fold increase in CD80 positive cells incubated for 18 hrs in the presence of muramyl dipeptide by staining based flow cytometric analysis relative to RC529; format: functional
# [6] = Induction of mouse RAW264.7 cell maturation assessed as fold increase in CD80 positive cells incubated for 18 hrs in the presence of muramyl dipeptide by staining based flow cytometric analysis relative to muramyl dipeptide; format: functional
# [7] = Induction of mouse RAW264.7 cell maturation assessed as change in CD80 positive cells incubated for 18 hrs by staining based flow cytometric analysis relative to control; format: functional
# [8] = Induction of mouse RAW264.7 cell maturation assessed as change in CD86 positive cells incubated for 18 hrs by staining based flow cytometric analysis relative to control; format: functional
# [9] = Induction of mouse RAW264.7 cell maturation assessed as change in CD80 positive cells incubated for 18 hrs in the presence of muramyl dipeptide by staining based flow cytometric analysis relative to control; format: functional
# [10] = Induction of mouse RAW264.7 cell maturation assessed as change in CD86 positive cells incubated for 18 hrs in the presence of muramyl dipeptide by staining based flow cytometric analysis relative to control; format: functional
# [11] = Induction of mouse BMDC cell maturation assessed as change in CD80 positive cells incubated for 18 hrs by staining based flow cytometric analysis relative to control; format: functional
# [12] = Induction of mouse BMDC cell maturation assessed as change in CD86 positive cells incubated for 18 hrs by staining based flow cytometric analysis relative to control; format: functional
# [13] = Induction of mouse BMDC cell maturation assessed as change in CD80 positive cells incubated for 18 hrs in the presence of muramyl dipeptide by staining based flow cytometric analysis relative to control; format: functional
# [14] = Induction of mouse BMDC cell maturation assessed as change in CD86 positive cells incubated for 18 hrs in the presence of muramyl dipeptide by staining based flow cytometric analysis relative to control; format: functional
# Mus musculus [15] = organism: Mus musculus; assay: Activation of adaptive immune response in ovalbumin immunized mouse model assessed as fold increase in IgG titers incubated for 1 hrs in presence of muramyl dipeptide and measured on day 42 relative to RC529; format: functional
# Mus musculus [16] = organism: Mus musculus; assay: Activation of adaptive immune response in ovalbumin immunized mouse model assessed as fold increase in IgG titers incubated for 1 hrs in presence of muramyl dipeptide and measured on day 42 relative to muramyl dipeptide; format: functional
# T-cell [17] = assay: Immunostimulatory activity in mouse spleen T-lymphocytes assessed as fold increase in proportion of TNF-alpha and IFN-gamma double-positive secreting CD4+ cells and measured on day 42 in the presence of muramyl dipeptide by staining based flow cytometric analysis relative to RC529; format: functional; conditions: time 42 day
# T-cell [18] = assay: Immunostimulatory activity in mouse spleen T-lymphocytes assessed as fold increase in proportion of TNF-alpha and IFN-gamma double-positive secreting CD4+ cells and measured on day 42 in the presence of muramyl dipeptide by staining based flow cytometric analysis relative to muramyl dipeptide; format: functional; conditions: time 42 day
# BMDC [19] = assay: Immunostimulatory activity in C57BL/6 mouse BMDC cells assessed as increase in IL-6 level at 9.3 uM incubated for 20 hrs in presence of GSK717 inhibitor by ELISA; format: functional, cell-based
# [20] = Induction of mouse RAW264.7 cell maturation assessed as fold increase in CD80 positive cells incubated for 18 hrs in the presence of muramyl dipeptide by staining based flow cytometric analysis relative to RC529-NH2; format: functional
SMILES,Activity (THP-1),Activity (BMDC [4]),fold change (FC) [6],Activity [7] [%],Activity [8] [%],Activity [9] [%],Activity [10] [%],Activity [11] [%],Activity [12] [%],Activity [13] [%],Activity [14] [%],also measured
CN(CCc1nc2ccccc2n1CC(=O)Nc1ccc2c(c1)CCC2)C(=O)c1ccccc1,Non-toxic,–,–,–,–,–,–,–,–,–,–,–
CCCCCCCCCCCCCC(=O)O[C@H](CCCCCCCCCCC)CC(=O)NCCO[C@@H]1O[C@H](CO)[C@@H](OP(=O)(O)O)[C@H](OC(=O)C[C@@H](CCCCCCCCCCC)OC(=O)CCCCCCCCCCCCC)[C@H]1NC(=O)C[C@@H](CCCCCCCCCCC)OC(=O)CCCCCCCCCCCCC.CCN(CC)CC,–,inactive,2.4,26.9,13.1,28.7,13.4,21.6,14,24.1,14.6,fold change (FC) (Mus musculus [1]): 21; fold change (FC) (Mus musculus [2]): 1.04; fold change (FC) (Mus musculus [3]): 17; fold change (FC) [5]: 1.1; fold change (FC) (Mus musculus [15]): 1.1; fold change (FC) (Mus musculus [16]): 1.9; fold change (FC) (T-cell [17]): 1.2; fold change (FC) (T-cell [18]): 1.2
CCOC(=O)C1=CCCC[C@H]1S(=O)(=O)Nc1ccc(F)cc1Cl [RESATORVID],Non-toxic,–,–,–,–,–,–,–,–,–,–,–
CC(=O)N[C@@H]1[C@@H](O[C@H](C)C(=O)N[C@@H](C)C(=O)N[C@H](CCC(=O)O)C(N)=O)[C@H](O)[C@@H](CO)O[C@H]1O [MURAMYLDIPEPTIDE],–,–,–,12.2,10.8,–,–,13.6,11.4,–,–,Activity (BMDC [19]): inactive
CCCCCCCCCCCCCC(=O)O[C@H](CCCCCCCCCCC)CC(=O)NCCO[C@@H]1O[C@H](CN)[C@@H](OP(=O)(O)O)[C@H](OC(=O)C[C@@H](CCCCCCCCCCC)OC(=O)CCCCCCCCCCCCC)[C@H]1NC(=O)C[C@@H](CCCCCCCCCCC)OC(=O)CCCCCCCCCCCCC,–,inactive,1.3,14.7,10.7,16.2,10.9,15.3,12.9,22.8,14.4,fold change (FC) [20]: 1.1
